Read-outs that look alike come from different tables or passages of the source. Marks after values point to notes of the source that are not given here.
How the values were obtained:
[1] = system: conscious cynomolgus monkeys; experiment: Sedation score during the IOP experiments; format: in vivo, cynomolgus monkey; design: key to Sedation (0-4): 0=alert, typical vocalization, movement, etc.; 1=calm, less movement; 2=slightly sedated, some vocalization, responsive to stimulation; 3=sedated, no vocalization, some response to stimulation; 4=asleep
Method: At the same time, sedation was measured and assessed according to the following score: 0=alert, typical vocalization, movement, etc.; 1=calm, less movement; 2=slightly sedated, some vocalization, responsive to stimulation; 3=sedated, no vocalization, some response to stimulation; 4=asleep.

[2] = target: T1, rat α2B (RNG gene) receptor (Rattus norvegicus, UniProt P19328); experiment: RSAT (Receptor Selection and Amplification Technology) assay, alpha 2B; format: cell-based; conditions: ratio of maximal effect to that of standard full agonist oxymetazoline
T1 construct: expressed in transfected cells; host or cells: NIH-3T3 cells, calcium phosphate cotransfection
T1 sequence (P19328 1-453): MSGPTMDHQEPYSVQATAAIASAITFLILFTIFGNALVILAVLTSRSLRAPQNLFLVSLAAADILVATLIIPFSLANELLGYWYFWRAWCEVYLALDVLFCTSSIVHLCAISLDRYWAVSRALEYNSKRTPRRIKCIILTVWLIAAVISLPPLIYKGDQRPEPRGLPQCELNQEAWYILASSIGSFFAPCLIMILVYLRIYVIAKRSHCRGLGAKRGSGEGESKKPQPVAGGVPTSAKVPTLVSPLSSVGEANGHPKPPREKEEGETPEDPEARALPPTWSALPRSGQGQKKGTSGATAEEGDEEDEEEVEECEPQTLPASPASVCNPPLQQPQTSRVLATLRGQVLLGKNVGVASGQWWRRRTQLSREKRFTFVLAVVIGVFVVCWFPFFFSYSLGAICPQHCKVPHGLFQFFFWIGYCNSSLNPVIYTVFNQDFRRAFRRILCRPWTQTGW
In short: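 NIH-3T3 cells transiently cotransfected with receptor, hybrid Gq/i5 protein and β-galactosidase marker were incubated with compound dilutions in triplicate for 72-96 hr at 37°. Proliferation was read as β-galactosidase activity (o-nitrophenyl-β-D-galactopyranoside, overnight at 30°, OD 420 nm). EC50 and efficacy were derived, the latter relative to a standard full agonist's maximal effect.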

[3] = system: cynomolgus monkeys with sustained elevated IOP; experiment: IOP lowering in conscious monkeys, eyes made hypertensive by argon laser photocoagulation; format: in vivo, cynomolgus monkey; conditions: Macaca fascicularis, topical, single 50 μl eye drop, up to 6 hours, read-out: Maximum % Decrease From Pretreatment Levels Hypertensive Eye (IOP); for inhibition in vivo at 0.3 %: ocular dose 0.3%; for inhibition in vivo at 1 %: ocular dose 1%
Text: Measurements of IOP were made in fully conscious female cynomolgus monkeys weighing 3-4 kg with sustained elevated IOP that was produced in the right eye by argon laser photocoagulation of the trabecular meshwork. Animals were usable for experiments 2 months following surgery. During the experiments, monkeys sat in specially designed chairs (Primate Products, San Francisco), and were fed orange juice and fruit as needed. A 30R model Digilab pneumatonometer (Alcon, Tex.) was used to measure IOP.
Twenty five μl of an anesthetic (proparacaine) was topically applied to each monkey before IOP measurements to minimize ocular discomfort due to tonometry. Two baseline measurements were made prior to instillation of the drugs, followed by periodic measurements up to 6 hours post-instillation. The test compounds were administered unilaterally as a single 50 μl eye drop; the contralateral eyes received an equal volume of saline.

[4] = system: conscious cynomolgus monkeys; experiment: Cardiovascular side effects (blood pressure, heart rate) after i.v. administration; format: in vivo, cynomolgus monkey; conditions: up to 6 hours, + with * = increase from base levels
Text: Cardiovascular measurements were made in a different group of monkeys using a BP 100S automated sphygmomanometer (Nippon Colin,. Japan).

[5] = system: rats with ligation of two spinal nerves; experiment: Spinal nerve ligation model of neuropathic pain, reversal of tactile allodynia; format: in vivo, rat; conditions: for Reversal of Tactile Allodynia (%): 30 minutes after dosing
Text: (§1) Alleviation of pain including neuropathic pain is another example of a disorder in which the compounds of the invention are useful and advantageous since pain is alleviated without undesirable side effects. […] (See, for example, Kim, S. and Chung, J. “An experimental model for peripheral neuropathy produced by segmental spinal nerve ligation in the rat.” Pain 50 pp. 355-363 (1992).) Following ligation of two spinal nerves, the animals develop a sensitivity to normally non-painful stimuli such as touch. The ability of alpha2 compounds to reverse this sensitivity, called allodynia, was tested 30 minutes after dosing by either intrathecal or intraperitoneal administration. The sedative activity of each compound was also measured using an activity chamber.

[6] = system: rats; experiment: Sedative activity measured using an activity chamber; format: in vivo, rat; conditions: for Sedation (%): 30 minutes after dosing
Text: as §1

[7] = intrathecal or intraperitoneal, rats

SMILES | Sedation (0-4) ([1]; ocular dose 0.3%) | Sedation (0-4) ([1]; ocular dose 1%) | Intrinsic Activity Relative to Oxymetazoline, Alpha 2B [2] | inhibition in vivo at 0.3 % [3] | inhibition in vivo at 1 % [3] | Maximum % Decrease From Pretreatment Levels, Heart Rate ([4]; i.v. 500 μg/kg) | Maximum % Decrease From Pretreatment Levels, Mean Arterial Blood Pressure ([4]; i.v. 500 μg/kg) | inhibition in vivo at 1 % ([3]; 6 h) | Maximum % Decrease From Pretreatment Levels, Heart Rate ([4]; i.v. 17 μg/kg) | Maximum % Decrease From Pretreatment Levels, Mean Arterial Blood Pressure ([4]; i.v. 17 μg/kg) | Maximum % Decrease From Pretreatment Levels, Heart Rate ([4]; i.v. 50 μg/kg) | Maximum % Decrease From Pretreatment Levels, Mean Arterial Blood Pressure ([4]; i.v. 50 μg/kg) | further results
Cc1ccc(Cc2c[nH]cn2)s1 [Example C-3, 4(5)-(5-methylthiophen-2-ylmethyl)-1H-imidazole] | 0 | 0 | 0.88 | 20.6 ± 4.8% | 25 ± 6.4% | 10.6 ± 3.4% | 2.3 ± 2.7% |  |  |  |  |  | 
Clc1ccc(Cc2c[nH]cn2)s1 [Example C-4, 4(5)-(5-chlorothiophen-2-ylmethyl)-1H-imidazole] | 0 | 0 | 0.82 | 17.7 ± 4% | 29.3 ± 4.9% | 10.9 ± 3.6% | 5.3 ± 2.9% |  |  |  |  |  | 
Cc1ccc(Cc2c[nH]cn2)o1 [Example C-7, 4(5)-(5-methylfuran-2-ylmethyl)-1H-imidazole] |  | 0 | 0.73 |  |  | 6.1 ± 3.7% | 3.0 ± 3.9% | 32.3 ± 5.7% |  |  |  |  | 
c1ccc(Cc2c[nH]cn2)cc1 [Example C-8, 4(5)-benzyl-1H-imidazole] |  | 0 | 0.9 |  | 31.2 ± 3.3% | 16.6 ± 1.9% | 5.5 ± 2.7% |  |  |  |  |  | 
c1ccc2sc(Cc3c[nH]cn3)cc2c1 [Example C-9, 4(5)-benzo[b]thiophen-2-ylmethyl-1H-imidazole] | 0 | 0 | 0.88 | 13.7 ± 4.5% | 25.1 ± 4.9% | 5.9 ± 3.3% | 6.0 ± 2.2% |  | +9.4 ± 1.8* % | 1.0 ± 4.1% | 16 ± 3.2% | 0.1 ± 3.8% | Maximum % Decrease From Pretreatment Levels, Heart Rate ([4]; i.v. 3.0 μg/kg): 9.4 ± 3.0%; Maximum % Decrease From Pretreatment Levels, Mean Arterial Blood Pressure ([4]; i.v. 3.0 μg/kg): 5.0 ± 2.3%
CN1CCOc2ccc(N=C3NCCN3)cc21 [Example E-1, imidazolidin-2-ylidene-(4-methyl-3,4-dihydro-2H-benzo[1,4]oxazin-6-yl) amine] | 0 | 0 | 0.83 |  |  |  |  | 27 ± 3% | 11 ± 4% | 7 ± 4% | 14 ± 5% | 7 ± 2% | inhibition in vivo at 0.3 % ([3]; 6 h): 25 ± 4%; Maximum % Decrease From Pretreatment Levels, Heart Rate ([4]; i.v. 167 μg/kg): 11 ± 5%; Maximum % Decrease From Pretreatment Levels, Mean Arterial Blood Pressure ([4]; i.v. 167 μg/kg): 9 ± 4%
c1nc(CC2CCCCC2)c[nH]1 [Example J-1, 4(5)-cyclohexylmethyl-1H-imidazole] |  | 0 | 0.83 |  |  | 7 ± 4% | 13 ± 3% | 26 ± 5% | 13 ± 4% | 7 ± 5.3% | 6 ± 2% | 4 ± 2% | Sedation (0-4) ([1]; ocular dose 3%): 0; inhibition in vivo at 3 % ([3]; 6 h, ocular dose 3%): 33 ± 3%; Maximum % Decrease From Pretreatment Levels, Heart Rate ([4]; i.v. 167 μg/kg): 3 ± 3%; Maximum % Decrease From Pretreatment Levels, Mean Arterial Blood Pressure ([4]; i.v. 167 μg/kg): 7 ± 5%
c1ccc2c(c1)CC[C@H](Cc1c[nH]cn1)C2 [Example J-2, (S)-4(5)-(1,2,3,4-tetrahydronaphthalen-2-ylmethyl)-1H-imidazole] | 0 |  | 0.8 |  |  | 6.4 ± 3.3% | +0.6 ± 3.1* % |  |  |  |  |  | Sedation (0-4) ([1]; ocular dose 0.03%): 0; inhibition in vivo at 0.03 % ([3]; 6 h, ocular dose 0.03%): 12.4 ± 3.7%
Cl.O=C1C2=C(CCCC2)CCC1Cc1c[nH]cn1 (stereo not shown) [Example N-1, 2-(1H-imidazol-4(5)-ylmethyl)-3,4,5,6,7,8-hexahydro-2H-naphthalen-1-one, hydrochloride salt] |  |  | 0.75 |  |  |  |  |  |  |  |  |  | Reversal of Tactile Allodynia (%) ([5]; intraperitoneal 3 mg/kg): 3%; Reversal of Tactile Allodynia (%) ([5]; intraperitoneal 30 mg/kg): 41* %; Reversal of Tactile Allodynia (%) ([5]; intrathecal 3 μg): 13%; Reversal of Tactile Allodynia (%) ([5]; intrathecal 30 μg): 64* %; alleviation of allodynia (in words) [5, 7]: able to alleviate the allodynia; Sedation (%) ([6]; intraperitoneal 10,000 mg/kg): 0%; Sedation (%) ([6]; intrathecal 30 μg): 0%; Sedation (%) ([6]; intrathecal 300 μg): 0%; sedation (in words) [6, 7]: without causing sedation, even at very high doses
Cc1[nH]cnc1Cc1ccc2c(c1)OCCO2 [M, 4-(2,3-dihydrobenzo[1,4]dioxin-6-ylmethyl)-5-methyl-1H-imidazole] |  | 0 | 0.97 |  |  | 5.5 ± 1.9% | 0.8 ± 2.3% | 22.5 ± 5.4% |  |  |  |  | 
